Measured values published in paper PMC2922759 (European journal of pharmacology, 2009).
Several values for one entry are separate records, joined by “and”; a condition that tells them apart may be missing. Identical values can stand only once. Entries after “also recorded” stand apart in the source; their conditions may differ.

How the values were obtained:
[1] = General tolerability / overt behavioral effects; format: in vivo; conditions: guinea pig, rat, cat and dogs
[2] = test system: mechanically-induced cough; test: Feline mechanically-induced cough; format: in vivo, cat; conditions: intra-vertebral artery, 0.001–0.3 mg/kg cumulative
Sodium channel, site 2 = test: MDS Pharma Services counterscreen binding; conditions: site 2 (rat), semi-quantitative
[3] = Pharmacokinetic profile in the dog; format: in vivo
[4] = target: human KOP opioid receptor (Homo sapiens, UniProt P41145); test: Opioid receptor binding, [3H]diprenorphine; conditions: human KOP in CHO cell membranes, Mean±S.E.M.
Sequence of human KOP opioid receptor (P41145 whole entry): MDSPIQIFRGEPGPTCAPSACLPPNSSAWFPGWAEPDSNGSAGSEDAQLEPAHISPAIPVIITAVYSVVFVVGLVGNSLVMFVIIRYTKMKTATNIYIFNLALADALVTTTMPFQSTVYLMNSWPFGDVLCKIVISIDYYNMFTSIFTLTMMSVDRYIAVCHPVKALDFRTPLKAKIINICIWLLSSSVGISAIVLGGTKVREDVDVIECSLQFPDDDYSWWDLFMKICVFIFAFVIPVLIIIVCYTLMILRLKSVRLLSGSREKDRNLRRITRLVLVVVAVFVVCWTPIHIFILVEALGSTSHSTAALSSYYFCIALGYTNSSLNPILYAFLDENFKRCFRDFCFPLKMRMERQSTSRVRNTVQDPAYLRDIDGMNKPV

[5] = Pharmacokinetic profile in the rat; format: in vivo; conditions: 10 mg/kg p.o.
Cat NOP receptor = test: NOP receptor binding, brain; conditions: Mean±S.E.M.
[6] = test system: MDS Pharma enzyme and receptor binding assays (benzodiazepine, bradykinin, dopamine D1/D2/D4, GABA, glutamate, glycine, serotonin, tachykinin); test: MDS Pharma Services counterscreen panel, remaining assays; conditions: tested at 10 μM; active = greater than 50% inhibition
capsaicin-induced cough = conditions: for doses producing significant CNS effects (lethargy, ataxia): guinea pig, in vivo, po
Dopamine D3 = Dopamine D3 (Homo sapiens, UniProt P35462); test: MDS Pharma Services counterscreen binding; conditions: semi-quantitative
Sequence of Dopamine D3 (P35462 whole entry): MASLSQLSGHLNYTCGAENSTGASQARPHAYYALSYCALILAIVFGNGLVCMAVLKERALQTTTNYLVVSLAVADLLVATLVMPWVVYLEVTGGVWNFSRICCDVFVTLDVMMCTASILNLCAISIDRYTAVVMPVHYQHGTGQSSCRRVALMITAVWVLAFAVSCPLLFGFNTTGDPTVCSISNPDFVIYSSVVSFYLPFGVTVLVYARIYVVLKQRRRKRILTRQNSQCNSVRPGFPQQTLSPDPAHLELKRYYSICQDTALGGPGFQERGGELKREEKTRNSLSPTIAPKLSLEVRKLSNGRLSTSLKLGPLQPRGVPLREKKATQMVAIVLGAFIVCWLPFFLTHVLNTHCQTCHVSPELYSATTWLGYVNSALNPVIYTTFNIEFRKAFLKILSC

[7] = target: human DOP opioid receptor (Homo sapiens, UniProt P41143); test: Opioid receptor binding, [3H]diprenorphine; conditions: human DOP in CHO cell membranes, Mean±S.E.M.
Sequence of human DOP opioid receptor (P41143 whole entry): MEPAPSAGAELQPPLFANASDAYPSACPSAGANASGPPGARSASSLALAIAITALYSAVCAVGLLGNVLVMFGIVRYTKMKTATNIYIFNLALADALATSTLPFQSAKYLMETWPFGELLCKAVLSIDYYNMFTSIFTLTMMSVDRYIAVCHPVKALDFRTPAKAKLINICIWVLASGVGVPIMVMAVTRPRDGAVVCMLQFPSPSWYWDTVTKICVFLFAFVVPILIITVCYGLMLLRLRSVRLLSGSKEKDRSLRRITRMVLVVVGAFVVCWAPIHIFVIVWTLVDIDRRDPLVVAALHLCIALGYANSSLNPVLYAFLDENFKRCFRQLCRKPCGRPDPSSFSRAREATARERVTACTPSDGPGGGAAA

[8] = Safety pharmacology rat studies; format: in vivo; conditions: oral doses up to 30 mg/kg, data not shown
[9] = test system: conditioned place preference; test: Rat conditioned place preference; format: in vivo; conditions: for conditioned place preference (time spent in drug paired side): SCH 486757 10 mg/kg p.o., amphetamine 3 mg/kg, morphine 10 mg/kg, 4 pairings
Sigma (non-selective) = test: MDS Pharma Services counterscreen binding; conditions: Sigma (non-selective, guinea pig); semi-quantitative
Serotonin 5-HT6 = Serotonin 5-HT6 (Homo sapiens, UniProt P50406); test: MDS Pharma Services counterscreen binding; conditions: semi-quantitative
Sequence of Serotonin 5-HT6 (P50406 whole entry): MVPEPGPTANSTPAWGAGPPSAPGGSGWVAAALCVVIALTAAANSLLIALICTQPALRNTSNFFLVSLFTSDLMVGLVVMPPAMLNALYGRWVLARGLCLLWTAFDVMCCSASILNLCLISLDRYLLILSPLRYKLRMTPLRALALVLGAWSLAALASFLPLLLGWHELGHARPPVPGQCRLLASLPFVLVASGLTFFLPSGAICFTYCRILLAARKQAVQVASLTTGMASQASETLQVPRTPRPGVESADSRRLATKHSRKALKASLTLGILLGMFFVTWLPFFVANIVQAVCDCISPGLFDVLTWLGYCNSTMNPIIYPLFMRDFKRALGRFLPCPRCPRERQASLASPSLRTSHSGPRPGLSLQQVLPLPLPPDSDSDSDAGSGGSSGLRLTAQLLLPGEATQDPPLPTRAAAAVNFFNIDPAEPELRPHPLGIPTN

Rat NOP receptor = Rat NOP receptor (Rattus norvegicus, UniProt P35370); test: NOP receptor binding, clone; conditions: rat clone (CHO cells); Mean±S.E.M.
Sequence of Rat NOP receptor (P35370 whole entry): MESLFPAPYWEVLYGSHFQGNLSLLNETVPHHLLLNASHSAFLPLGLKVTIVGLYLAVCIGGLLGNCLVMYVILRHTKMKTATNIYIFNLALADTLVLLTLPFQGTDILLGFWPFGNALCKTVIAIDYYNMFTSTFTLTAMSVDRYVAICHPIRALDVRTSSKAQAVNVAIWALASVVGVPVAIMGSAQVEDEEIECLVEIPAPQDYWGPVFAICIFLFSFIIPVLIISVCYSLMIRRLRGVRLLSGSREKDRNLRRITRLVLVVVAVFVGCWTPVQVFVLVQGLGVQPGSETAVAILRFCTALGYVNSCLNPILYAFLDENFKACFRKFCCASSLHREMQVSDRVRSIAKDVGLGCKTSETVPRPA

[10] = Pharmacokinetic profile in the guinea pig; format: in vivo
Guinea pig NOP receptor = Guinea pig NOP receptor (Cavia porcellus, UniProt P47748); test: NOP receptor binding, brain; conditions: guinea pig brain (cortex); Mean±S.E.M.
Sequence of Guinea pig NOP receptor (P47748 whole entry): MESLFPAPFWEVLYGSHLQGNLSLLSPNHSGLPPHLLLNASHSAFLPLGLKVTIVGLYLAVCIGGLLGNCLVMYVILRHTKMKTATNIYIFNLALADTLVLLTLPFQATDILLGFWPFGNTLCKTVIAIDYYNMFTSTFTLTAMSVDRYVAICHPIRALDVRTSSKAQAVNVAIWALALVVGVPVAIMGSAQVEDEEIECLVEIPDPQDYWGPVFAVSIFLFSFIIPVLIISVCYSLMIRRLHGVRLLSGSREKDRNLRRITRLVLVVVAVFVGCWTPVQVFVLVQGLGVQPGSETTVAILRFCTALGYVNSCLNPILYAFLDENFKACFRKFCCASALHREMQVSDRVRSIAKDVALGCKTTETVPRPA

Dopamine transporter = Dopamine transporter (Homo sapiens, UniProt Q01959); test: MDS Pharma Services counterscreen binding; conditions: semi-quantitative
Sequence of Dopamine transporter (Q01959 whole entry): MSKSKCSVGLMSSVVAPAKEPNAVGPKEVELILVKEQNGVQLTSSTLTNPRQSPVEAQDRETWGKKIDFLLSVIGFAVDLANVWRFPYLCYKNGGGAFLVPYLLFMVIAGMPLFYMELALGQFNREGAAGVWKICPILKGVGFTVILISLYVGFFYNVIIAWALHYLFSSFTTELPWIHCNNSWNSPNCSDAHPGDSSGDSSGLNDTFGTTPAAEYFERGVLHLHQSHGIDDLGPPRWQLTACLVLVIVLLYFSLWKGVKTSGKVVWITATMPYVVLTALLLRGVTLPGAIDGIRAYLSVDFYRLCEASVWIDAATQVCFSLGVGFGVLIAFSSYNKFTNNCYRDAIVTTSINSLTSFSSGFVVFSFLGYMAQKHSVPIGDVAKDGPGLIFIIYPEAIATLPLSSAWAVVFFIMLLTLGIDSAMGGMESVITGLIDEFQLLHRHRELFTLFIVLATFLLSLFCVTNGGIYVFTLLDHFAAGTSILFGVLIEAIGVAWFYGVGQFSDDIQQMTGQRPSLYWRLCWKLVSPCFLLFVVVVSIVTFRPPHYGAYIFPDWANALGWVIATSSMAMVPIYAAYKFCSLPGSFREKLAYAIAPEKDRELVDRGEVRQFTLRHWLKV

Dog NOP receptor = test: NOP receptor binding, brain; conditions: Mean±S.E.M.

Compound: OC1(c2ncccn2)CC2CCC(C1)N2C(c1ccccc1Cl)c1ccccc1Cl (centres unmarked) [SCH 486757, 8-[Bis(2-Chlorophenyl)Methyl]-3-(2-Pyrimidinyl)-8-Azabicyclo-[3.2.1.]Octan-3-Ol]
- tolerability, overt behavioral effects [1]: well tolerated
- effect on inspiratory electromyogram amplitude [2]: did not significantly affect; also recorded: no significant effect
- Ki (Sodium channel, site 2): 5.58 µM
- half-life (t1/2) ([3]; 3 mg/kg intravenous): 7.9 h
- mean AUC ([3]; 3 mg/kg intravenous): 5680 nM·h
- AUC ([3]; 3 mg/kg p.o.): 1840 nM·h
- Cmax ([3]; 3 mg/kg p.o.): 0.54 µM
- Tmax ([3]; 3 mg/kg p.o.): 0.8 h
- percent bioavailability (F%) ([3]; 3 mg/kg p.o. vs intravenous): 32%
- Ki [4]: 0.59 ± 0.04 µM
- AUC [5]: 1290 nM·h
- Cmax [5]: 0.127 µM
- Tmax [5]: 3.3 h
- Ki (Cat NOP receptor): 0.0067 ± 0.00067 µM
- activity in remaining MDS Pharma enzyme and receptor binding assays [6]: did not show significant affinity
- antitussive activity at 2 and 6 h (capsaicin-induced cough; 0.1 mg/kg, p.o., 2 and 6 h): Significant antitussive activity
- inhibition of capsaicin-evoked coughing, chronic dosing (capsaicin-induced cough; 1 mg/kg p.o., 5-day BID regimen, 2 h post last dose): 40 ± 11%
- inhibition of capsaicin-evoked coughing, acute dosing (capsaicin-induced cough; 1 mg/kg p.o., single dose, 2 h post treatment): 46 ±9%
- inhibition of cough at 24 h (capsaicin-induced cough; 1 mg/kg, p.o., 24 h, data not shown): did not inhibited cough
- tolerance to antitussive activity (capsaicin-induced cough; 5-day BID dosing regimen, 1 mg/kg p.o.): does not produce tolerance
- antitussive effect in presence of naltrexone (capsaicin-induced cough; SCH 486757 3 mg/kg p.o., naltrexone 10 mg/kg p.o., 2 h): not by naltrexone
- ED50 against capsaicin-induced cough (capsaicin-induced cough; p.o., 4 h post administration): 0.04 mg/kg
- maximum efficacy, cough suppression (capsaicin-induced cough; p.o., 4 h post administration): 66 ± 6%
- Ki (Dopamine D3): 3.66 µM
- Ki [7]: 14.7 ± 2.56 µM
- effect on blood gases or respiratory function parameters [8]: did not affect
- number of entries into the drug paired side ([9]; 10 mg/kg p.o.): did not alter
- conditioned place preference (time spent in drug paired side) [9]: without effect; also recorded: did not produce any conditioned place preference; also recorded: no effect
- Ki (Sigma (non-selective)): 7.12 µM
- Ki (Serotonin 5-HT6): 2.35 µM
- Ki (Rat NOP receptor): 0.0066 ± 0.00015 µM
- AUC ([10]; 0.03 mg/kg p.o.): 27 nM·h
- Tmax ([10]; 0.03 mg/kg p.o.): 3 h
- plasma concentration during the 2- to 4-hour time period ([10]; 0.03 mg/kg p.o.): about 2 nM
- Cmax ([10]; 0.03 mg/kg p.o., 0.03 mg/kg): 0.0031 µM and 0.003 µM
- AUC ([10]; 0.30 mg/kg p.o.): 242 nM·h
- Cmax ([10]; 0.30 mg/kg p.o.): 0.031 µM
- Tmax ([10]; 0.30 mg/kg p.o.): 3 h
- Ki (Guinea pig NOP receptor): 0.0054 ± 0.00032 µM
- Ki (Dopamine transporter): 8.43 µM
- Ki (Dog NOP receptor): 0.0053 ± 0.00071 µM

Compound: CC(N)Cc1ccccc1 (centres unmarked) [amphetamine, reference compound]
- conditioned place preference (time spent in drug paired side) [9]: induced a marked conditioned place preference; also recorded: increased the time spent on the drug paired side

Compound: COc1ccc2c3c1O[C@H]1[C@@H](O)C=C[C@H]4[C@@H](C2)N(C)CC[C@@]341 [codeine, reference compound]
- doses producing significant CNS effects (lethargy, ataxia) (capsaicin-induced cough): higher than 60 mg/kg
- antitussive efficacy compared between SCH 486757 and standards (capsaicin-induced cough; p.o., 4 h): comparable antitussive efficacies

Compound: COc1ccc2c(c1)[C@]13CCCC[C@@H]1[C@H](C2)N(C)CC3 [dextromethorphan, reference compound]
- doses producing significant CNS effects (lethargy, ataxia) (capsaicin-induced cough): > 100 mg

Compound: CN1CC[C@]23c4c5ccc(O)c4O[C@H]2[C@@H](O)C=C[C@H]3[C@H]1C5 [morphine, reference compound]
- conditioned place preference (time spent in drug paired side) [9]: induced a marked conditioned place preference; also recorded: increased the time spent on the drug paired side

Compound: O=C1CC[C@@]2(O)[C@H]3Cc4ccc(O)c5c4[C@@]2(CCN3CC2CC2)[C@H]1O5 [naltrexone, reference compound]
- action on capsaicin-induced cough responses, given alone (capsaicin-induced cough; J113397 12 mg/kg i.p., naltrexone 10 mg/kg p.o.): Neither naltrexone nor J113397 given alone had any actions
